Assay results from patent US6469062B2, “Use of 15-keto-prostaglandins in promoting bile secretion” (Sucampo A.G., priority 2000, dated 2002).

Legend:
[1] = tested on: dogs and cats; conditions: cited from earlier work
[2] = tested on: normal rats; experiment: Test Example 1: bile flow in normal rats after oral administration; type: in vivo, rat; conditions: 100 μg/kg orally 3 times a day for 7 days; bile collected on day 8, 1 to 2 hours after cannulation; vs vehicle
Protocol: Male Wister rats were used. 100 μg/kg of test compound 1 (13,14-dihydro-15-keto-16, 16-difluoro-18(S)-methyl-prostaglandin E1) was administered orally to the test group animals (n=8) 3 times a day for 7days. To the control group animals (n=7), the same volume of the vehicle, i.e. 0.01% polysorbate 80, 0.5% ethanol in distilled water was administered. At the next day after the final administration (day 8), the common bile duct of the respective rat was cannulated under ether anesthesia and the rat was placed in ball man gauge for 1 hour to recover from anesthesia. The bile discharged over one hour time period, i.e. from 1 to 2 hours of the cannulation, was collected and determined bile flow.

[3] = tested on: rat isolated liver; experiment: Test Example 5: bile flow of cold preserved rat isolated liver, compound added to rinse solution; conditions: added to Krebs-Ringer rinse solution perfused for 40 minutes after 16-hour cold storage
Protocol: The perfusion protocol of the Test Example 4 was repeated except for the test compound 1 and the test compound 2 were added to the Krebs-Ringer solution, i.e. the rinse solution perfused for 40 minute's to determine the recovery of the bile flow.

[4] = tested on: rat isolated liver; experiment: Test Example 4: bile flow of rat isolated liver, compound added to preservation solution; conditions: 10 μM added to U-W preservation solution, 4° C., 16 hours storage; 40 minutes reperfusion
Source text: Male Wister Rats were anesthetized with pentobarital sodium and hepatic-portal region was exposed by abdominal midline incision. The common bile duct was cannulated and the portal stem was inserted with a 19 gauge surflo® needle equipped with a three way stopcock. […] Treitz' ligament, the ligament around the liver, and diaphragm were cut and the liver was removed to the outside of the body and subjected to extracoporeal perfusion. The liver was subjected to a fifteen minutes of pre-perfusion until its oxygen consumption achieved to constant and then, the perfusate was exchanged with University of Wisconsin solution (U-W solution) at 4° C. Immediately after finish of the exchange, the liver connected with the three-way stopcock was removed from the perfusion cycle and the inlet was clamped. Then the liver was putted into the U-W solution at the same temperature and stored for 16 hours. […] During the reperfusion period, bile flow was determined every 5 minutes.
In the above perfusion protocol, 10 μM of test compound 1 or test compound 2 (13,14-dihydro-15-keto-16,16-difluoro-17(R)-methyl-prostaglandin E1) were added to the U-W solution to determine the effects of these drugs on recovery of bile flow.

[5] = tested on: anoxia/re-oxygenation perfused rat liver; experiment: Test Example 3: bile flow recovery of anoxia/re-oxygenation perfused rat liver; conditions: 10 μM added at re-oxygenation after 20 minutes of anoxia; vs vehicle
Protocol: Isolated perfused liver sample was prepared by the same manner as described in the test example 2. Each livers of test and control groups was perfused with Krebs-Ringer solution saturated with 95% N2 and 5% CO2 for 20 minutes to expose the liver oxygen-free condition. After that, Krebs-Ringer solution saturated with 95% O2 and 5% CO2 was perfused to re-oxygenize the liver. At the re-oxygenization step, 10 μM of the test compound 1 was added to the Krebs-Ringer solution for the test group.

[6] = tested on: perfused rat liver; experiment: Test Example 2: bile flow of isolated perfused rat liver
Protocol: Male Wister rats were used. Each rat was cannulated for collection of bile under pentobarbital sodium anesthesia. A catheter was inserted and fixed in the portal vein. Krebs-Ringer solution saturated with 95% O2 and 5% CO2 (pH 7.4, 37° C.) was infused via the catheter at a constant flow rate of 4.0 ml/min/g liver weight by means of peristaltic pump to perfuse the liver. The liver was removed under perfusion. In case where the bile secretion was necessary to maintain being the physiological level, the liver was perfused with Krebs-Ringer solution supplemented with sodium taurocolate (30 μmol/l). For the test group animals, the test compound 1 was added to the Krebs-Ringer solution. Bile of the each animals including test and control groups was collected in every 5 minutes.

[7] = tested on: porcine of which liver was replaced by transplantation; conditions: intraportal administration; cited from earlier work
[8] = tested on: implanted liver; conditions: added to liver preservation solution; rat liver transplantation model; cited from earlier work

**Q.** Which cholagogic effect [1] does the source give for `CCCCC[C@H](O)/C=C/[C@H]1C=CC(=O)[C@@H]1CCCCCCC(=O)O` [PGA1] here?
**A.** cholagogic effect

**Q.** For `CC[C@H](C)CC(F)(F)C(=O)CC[C@H]1[C@H](O)CC(=O)[C@@H]1CCCCCCC(=O)O` [test compound 1, 13,14-dihydro-15-keto-16,16-difluoro-18(S)-methyl-prostaglandin E1], which “normal rat bile flow” value [2] is on record?
**A.** significantly increased

**Q.** What about the “bile flow in reperfusion of cold preserved rat liver” value [3] of the same molecule?
**A.** significantly increased

**Q.** What about the “bile flow at the reperfusion step” value [4] of the same molecule?
**A.** increased the bile flow at the reperfusion step significantly

**Q.** What about the “bile flow recovery after anoxia/re-oxygenation” value [5] of the same molecule?
**A.** significantly increased the bile flow

**Q.** And the “bile flow of the perfused rat liver” value ([6]; compound added to Krebs-Ringer perfusate)?
**A.** significantly increased bile flow

**Q.** And the “cholagogic effect, dose dependence” value ([6]; under the presence of bile acid (sodium taurocolate 30 μmol/l))?
**A.** dose dependent cholagogic effect

**Q.** What about the “bile flow, presence (TC(+)) or absence (TC(−)) of bile acid” value ([6]; with or without bile acid in the perfusate) of the same molecule?
**A.** increased the bile flow irrespective of the presence or absence of bile acid

**Q.** Which “bile flow in reperfusion of cold preserved rat liver” value [3] does the source give for `CCCC(C)C(F)(F)C(=O)CCC1C(O)CC(=O)C1CCCCCCC(=O)O` [test compound 2, 13,14-dihydro-15-keto-16,16-difluoro-17(R)-methyl-prostaglandin E1] here?
**A.** significantly increased

**Q.** And the “bile flow at the reperfusion step” value [4]?
**A.** increased the bile flow at the reperfusion step significantly

**Q.** With `CCCCC[C@H](O)/C=C/[C@@H]1[C@@H](C/C=C\CCCC(=O)O)[C@@H](O)C[C@H]1O` [PGF2a] as the molecule, how does the cholagogic effect [1] read?
**A.** cholagogic effect

**Q.** With `CCCCC[C@H](O)/C=C/[C@H]1[C@H](O)CC(=O)[C@@H]1CCCCCCC(=O)O` [PGE1, prostaglandin E1] as the molecule, how does the bile flow [7] read?
**A.** increased the bile flow

**Q.** What about the cholagogic effect [1] of the same molecule?
**A.** cholagogic effect

**Q.** Which cholagogic effect [1] does the source give for `CCCCC[C@H](O)/C=C/[C@H]1[C@H](O)CC(=O)[C@@H]1C/C=C\CCCC(=O)O` [PGE2] here?
**A.** cholagogic effect

**Q.** With `CCCC[C@H](C)C[C@H](O)/C=C/[C@@H]1C2CC(CCCCC(=O)O)=CC2C[C@H]1O` (stereo partly shown) [TEI-9063] as the molecule, how does the “bile producing activity of the implanted liver” value [8] read?
**A.** improved bile producing activity

**Q.** With `CCCCC[C@H](O)/C=C/[C@@H]1[C@H]2C/C(=C/CCCC(=O)O)O[C@H]2C[C@H]1O` [prostacyclin] as the molecule, how does the cholagogic effect [1] read?
**A.** cholagogic effect
